US20260364184A1, “COMPOUND BASED ON OXOISOINDOLINYL-SUBSTITUTED TETRAHYDROPYRIMIDINE-DIONE AND USE THEREOF” (GLUETACS THERAPEUTICS (SHANGHAI) CO., LTD., priority 2023, published 2026)
Values belong to the compound of their own block, whether it stands above or below them.

What was measured:
Format in all cases: cell-based
[1] = system: Human B-Cell Lymphoma Cells (RPMI-8226); assay: Inhibition of RPMI-8226 cell proliferation (CellTiter luminescent viability); settings: Table IA4, IRAK4 inhibitor-based, RPMI-8226, 500 nM, 96 hours, read-out: Inhibition Rate at 500 nM (%)
Description: (§1) The tumor cells used herein were cultured in a cell culture medium listed in table 3 at 37 °C in an incubator with 5% CO2. Prior to experimentation, all cell lines used were correctly identified by STR profiling, and tested negative for mycoplasma contamination using a mycoplasma detection kit through routine screenings.
(§2) The IC50 values of the compounds of the present disclosure (including the compounds in Table 1, Table 2, and Examples 1-468) were determined using the CellTiter-Meiluncell Luminescent Cell Viability Assay Kit from Dalian Meilun Biotech Co., Ltd. The detailed procedure is as follows: Tumor cells were seeded in 96-well cell culture plates at the densities specified in Table 4. On the following day, the test compounds of the present disclosure were subjected to serial dilution. The dilution can be performed according to one of the following two methods: • (1) The first dilution method: The test compounds of the present disclosure (including the compounds in Table 1, Table 2, and Examples 1-468) were subjected to 5-fold serial dilutions starting from a highest concentration of 2000 μM, resulting in a total of 9 concentrations from high to low (2000, 400, 80, 16, 3.2, 0.64, 0.128, 0.0256, 0.00512 μM). Subsequently, 0.5 μL of the test compound dilution was transferred into the 96-well plate containing the cells, with each well containing 100 μL of cell culture medium. […] Into the 96-well plate, the diluted test compounds and corresponding detection reagents were added, resulting in final test compound concentrations of 500 nM and 10 nM, respectively. The experimental procedure is described below using the diluted 2 μM test compound as an example.
(§3) 0.5 μL of the aforementioned diluted compound of the present disclosure (including the compounds in Table 1, Table 2, and Examples 1-468) was added to the seeded cells in 100 μL of medium, yielding a final test compound concentration of 10 nM. After the cells were treated with the compounds of the present disclosure for a specified period, the cell viability assay reagent was added to the culture medium according to the kit's instructions to determine cell viability. […] All controls were treated using the same procedure as the compounds of the present disclosure. The growth inhibition curves for the compounds of the present disclosure were plotted using Prism GraphPad software, and the IC50 values were calculated therefrom.

[2] = as above; settings: Homo sapiens; Table IA4, IRAK4 inhibitor-based; RPMI-8226, 10 nM, 96 hours; read-out: Inhibition Rate at 10 nM (%)
Description: as §1, §2, §3

[3] = system: Human myeloid monocytic leukemia cell line (MV-4-11); assay: Inhibition of MV-4-11 cell proliferation (CellTiter luminescent viability); settings: Homo sapiens, MV4-11, Table IA3, IRAK4 inhibitor-based, 96 hours; for inhibition at 0.01 µM: MV-4-11, 10 nM, read-out: Inhibition Rate at 10 nM (%); for inhibition at 0.5 µM: MV-4-11, 500 nM, read-out: Inhibition Rate at 500 nM (%)
Outline: (§4)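 Cells are seeded in 96-well plates, cultured at 37 °C, 5% CO2, and treated next day with 5-fold serial compound dilutions (stock series from 2000 μM; 0.5 μL into 100 μL medium). Viability is read by CellTiter-Meiluncell luminescence after the set exposure, and IC50 is taken from growth-inhibition curves.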

IRAK4 = target: T1, IRAK4 (Homo sapiens, UniProt Q9NWZ3); assay: Western blot degradation of IRAK4; settings: hPBMC Cell; 24 hours
T1 construct: expression of target proteins in cells; endogenous in cells
T1 sequence (Q9NWZ3 1-460): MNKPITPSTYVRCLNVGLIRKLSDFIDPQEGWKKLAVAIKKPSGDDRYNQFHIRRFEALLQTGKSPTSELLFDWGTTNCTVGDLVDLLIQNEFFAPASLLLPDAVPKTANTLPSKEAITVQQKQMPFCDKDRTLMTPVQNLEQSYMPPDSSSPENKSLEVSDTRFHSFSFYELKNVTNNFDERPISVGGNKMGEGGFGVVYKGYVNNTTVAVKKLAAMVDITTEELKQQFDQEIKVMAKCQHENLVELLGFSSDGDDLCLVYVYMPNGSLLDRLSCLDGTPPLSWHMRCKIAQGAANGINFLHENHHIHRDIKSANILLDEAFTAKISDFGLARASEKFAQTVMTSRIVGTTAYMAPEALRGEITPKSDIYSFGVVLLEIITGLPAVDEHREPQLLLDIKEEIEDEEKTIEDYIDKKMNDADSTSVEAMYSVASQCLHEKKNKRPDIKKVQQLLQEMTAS
Outline: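 Cells treated with compound, lysed, and target protein detected by Western blot (SDS-PAGE, nitrocellulose transfer). DC50 taken as the concentration giving band grayscale half that of DMSO control, estimated by concentration-response fitting; remaining protein (%) from target band normalised to internal control band; degradation (%) = 1 − remaining.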

[4] = system: Human Multiple myeloma cell line (MM.1S); assay: Inhibition of MM.1S cell proliferation (CellTiter luminescent viability); settings: Homo sapiens, MM1.S, Table IA5, IRAK4 inhibitor-based, 96 hours; for inhibition at 0.01 µM: 10 nM, read-out: Inhibition Rate at 10 nM (%); for inhibition at 0.5 µM: 500 nM, read-out: Inhibition Rate at 500 nM (%)
Outline: as §4

[5] = system: Human Acute T Lymphoblastic Leukemia Cells (Molt-4); assay: Inhibition of Molt-4 cell proliferation (CellTiter luminescent viability); settings: Homo sapiens, MOLT-4, 96 h, Table IA2, IRAK4 inhibitor-based, 96 hours; for inhibition at 0.01 µM: Molt-4, 10 nM, read-out: Inhibition Rate at 10 nM (%); for inhibition at 0.5 µM: Molt-4, 500 nM, read-out: Inhibition Rate at 500 nM (%)
Description: as §1, §2, §3

SMILES: CC(C)(O)c1cc2nc(C3CCN(Cc4ccc5c(c4)CN(N4CCC(=O)NC4=O)C5=O)CC3)sc2cc1NC(=O)c1cccc(C(F)(F)F)n1 [GT-05747, N-(2-(1-((2-(2,4-dioxotetrahydropyrimidin-1(2H)-yl)-1-oxoisoindolin-5-yl)methyl)piperidin-4-yl)-5-(2-hydroxypropan-2-yl)benzo[d]thiazol-6-yl)-6-(trifluoromethyl) picolinamide]
inhibition at 0.5 µM [1]: 25 to 30%
inhibition at 0.01 µM [2]: 25 to 30%
inhibition at 0.01 µM [3]: 36 to 45%
inhibition at 0.5 µM [3]: 80 to 100%

Degradation of substrate protein IRAK4 (substrate protein remaining %) (IRAK4): A (0%≤substrate protein remaining %≤80%)
SMILES: CC(C)(O)c1cc2nc(C3CCN(CC4CCN(c5ccc6c(c5)C(=O)N(N5CCC(=O)NC5=O)C6=O)CC4)CC3)sc2cc1NC(=O)c1cccc(C(F)(F)F)n1 [GT-05819, N-(2-(1-((1-(2-(2,4-dioxotetrahydropyrimidin-1(2H)-yl)-1,3-dioxoisoindolin-5-yl)piperidin-4-yl)methyl)piperidin-4-yl)-5-(2-hydroxypropan-2-yl)benzo[d]thiazol-6-yl)-6-(trifluoromethyl) picolinamide]
inhibition at 0.5 µM [1]: 25 to 30%
inhibition at 0.01 µM [2]: 15 to 20%

Degradation of substrate protein IRAK4 (substrate protein remaining %) (IRAK4): A (0%≤substrate protein remaining %≤80%)
SMILES: O=C1CCN(N2C(=O)c3ccc(N4CC5CCC(C4)N5C[C@H]4CC[C@H](n5cc(NC(=O)c6cnn7ccc(N8C[C@H]9C[C@@H]8CO9)nc67)c(C(F)F)n5)CC4)cc3C2=O)C(=O)N1 [GT-05825, 5-((1R,4R)-2-oxa-5-azabicyclo[2.2.1]heptan-5-yl)-N-(3-(difluoromethyl)-1-((1r,4R)-4-((3-(2-(2,4-dioxotetrahydropyrimidin-1(2H)-yl)-1,3-dioxoisoindolin-5-yl)-3,8-diazabicyclo[3.2.1]octan-8-yl)methyl)cyclohexyl)-1H-pyrazol-4-yl)pyrazolo[1,5-a]pyrimidine-3-carboxamide]
inhibition at 0.5 µM [1]: 25 to 30%
inhibition at 0.01 µM [2]: 15 to 20%

SMILES: Cc1cc(-c2nc(C(=O)Nc3cc4oc(N5CCN(Cc6ccc7c(c6)C(=O)N(N6CCC(=O)NC6=O)C7=O)CC5)nc4nc3N3CC[C@@H](O)C3)co2)ccn1 [GT-05803, (R)—N-(2-(4-((2-(2,4-dioxotetrahydropyrimidin-1(2H)-yl)-1,3-dioxoisoindolin-5-yl)methyl)piperazin-1-yl)-5-(3-hydroxypyrrolidin-1-yl)oxazolo[4,5-b]pyridin-6-yl)-2-(2-methylpyridin-4-yl) oxazole-4-carboxamide]
inhibition at 0.01 µM [4]: 30 to 40%
inhibition at 0.5 µM [4]: 25 to 30%
inhibition at 0.5 µM [1]: 20 to 25%
inhibition at 0.01 µM [2]: 25 to 30%
inhibition at 0.01 µM [3]: 50 to 60%
inhibition at 0.5 µM [3]: 60 to 80%

SMILES: O=C1CCN(N2Cc3cc(CN4CCC(n5cc(NC(=O)c6coc(-c7ccnc(NCC(F)(F)F)c7)n6)c(C(F)F)n5)CC4)ccc3C2=O)C(=O)N1 [GT-05184, N-(3-(difluoromethyl)-1-(1-((2-(2,4-dioxotetrahydropyrimidin-1(2H)-yl)-1-oxoisoindolin-5-yl)methyl)piperidin-4-yl)-1H-pyrazol-4-yl)-2-(2-((2,2,2-trifluoroethyl)amino)pyridin-4-yl) oxazole-4-carboxamide]
inhibition at 0.01 µM [4]: 5 to 10%
inhibition at 0.5 µM [4]: 80 to 100%
inhibition at 0.5 µM [1]: 80 to 100%
inhibition at 0.01 µM [2]: 20 to 25%
inhibition at 0.01 µM [5]: 3 to 7%
inhibition at 0.5 µM [5]: 80 to 100%
inhibition at 0.01 µM [3]: 50 to 60%
inhibition at 0.5 µM [3]: 80 to 100%

SMILES: CC(C)(O)c1cc2nc(C3CCN(CC4CCN(c5ccc6c(c5)C(=O)N(N5CCC(=O)NC5=O)C6=O)CC4)CC3)oc2cc1NC(=O)c1cccc(C(F)(F)F)n1 [GT-05222, N-(2-(1-((1-(2-(2,4-dioxotetrahydropyrimidin-1(2H)-yl)-1,3-dioxoisoindolin-5-yl)piperidin-4-yl)methyl)piperidin-4-yl)-5-(2-hydroxypropan-2-yl)benzo[d]oxazol-6-yl)-6-(trifluoromethyl) picolinamide]
inhibition at 0.01 µM [4]: 30 to 40%
inhibition at 0.5 µM [4]: 25 to 30%
inhibition at 0.5 µM [1]: 30 to 40%
inhibition at 0.01 µM [2]: 30 to 40%

SMILES: O=C1CCN(N2C(=O)c3ccc(N4CCC(N5CCC(CN6CCC(n7cc(NC(=O)c8cnn9ccc(N%10CCOCC%10)nc89)c(C(F)F)n7)CC6)CC5)CC4)cc3C2=O)C(=O)N1 [GT-05760, N-(3-(difluoromethyl)-1-(1-((1′-(2-(2,4-dioxotetrahydropyrimidin-1(2H)-yl)-1,3-dioxoisoindolin-5-yl)-[1,4′-bipiperidin]-4-yl)methyl)piperidin-4-yl)-1H-pyrazol-4-yl)-5-morpholinopyrazolo[1,5-a]pyrimidine-3-carboxamide]
inhibition at 0.01 µM [4]: 25 to 30%
inhibition at 0.5 µM [4]: 30 to 40%
inhibition at 0.5 µM [1]: 30 to 40%
inhibition at 0.01 µM [2]: 25 to 30%
inhibition at 0.01 µM [3]: 50 to 60%
inhibition at 0.5 µM [3]: 80 to 100%

SMILES: O=C1CCN(N2C(=O)c3cccc(N4CCC(CN5CCC(n6cc(NC(=O)c7cnn8ccc(N9CCOCC9)nc78)c(C(F)F)n6)CC5)CC4)c3C2=O)C(=O)N1 [GT-05224, N-(3-(difluoromethyl)-1-(1-((1-(2-(2,4-dioxotetrahydropyrimidin-1(2H)-yl)-1,3-dioxoisoindolin-4-yl)piperidin-4-yl)methyl)piperidin-4-yl)-1H-pyrazol-4-yl)-5-morpholinopyrazolo[1,5-a]pyrimidine-3-carboxamide]
inhibition at 0.01 µM [4]: 15 to 20%
inhibition at 0.5 µM [4]: 60 to 80%
inhibition at 0.5 µM [1]: 30 to 40%
inhibition at 0.01 µM [2]: 20 to 25%
inhibition at 0.01 µM [5]: 0 to 3%
inhibition at 0.5 µM [5]: 80 to 100%
inhibition at 0.01 µM [3]: 50 to 60%
inhibition at 0.5 µM [3]: 80 to 100%

SMILES: Cc1cc(-c2nc(C(=O)Nc3cc4oc(N5CCN(Cc6ccc7c(c6)CN(N6CCC(=O)NC6=O)C7=O)CC5)nc4nc3N3CC[C@@H](O)C3)co2)ccn1 [GT-05750, (R)—N-(2-(4-((2-(2,4-dioxotetrahydropyrimidin-1(2H)-yl)-1-oxoisoindolin-5-yl)methyl)piperazin-1-yl)-5-(3-hydroxypyrrolidin-1-yl)oxazolo[4,5-b]pyridin-6-yl)-2-(2-methylpyridin-4-yl) oxazole-4-carboxamide]
inhibition at 0.5 µM [1]: 20 to 25%
inhibition at 0.01 µM [2]: 25 to 30%
inhibition at 0.01 µM [3]: 36 to 45%
inhibition at 0.5 µM [3]: 80 to 100%
